Laboratory results from patent US10758614B2, “Combination therapies targeting tumor-associated stroma or tumor cells and topoisomerase” (BIOMED VALLEY DISCOVERIES, INC., priority 2014, dated 2020).

Experiments:
MDA-MB231 tumors = settings: 79-day study, endpoint 1500 mm^3; logrank
Method: Unless otherwise noted, female immunodeficient athymic nude mice (Crl:NU(Ncr)-Foxn/nu, Charles River) were used at nine weeks old with a body weight (BW) range of about 15 to about 30 grams on Day 1 of the study.
On the day of tumor implant, each test mouse was injected with cultured tumor cells, and tumor growth was monitored as the average size approached the target range. Tumors were measured in two dimensions using calipers, and volume was calculated using the formula: Tumor Volume (mm^3)=(w^2×l)/2 where w=width and l=length, in mm, of the tumor. Tumor weight was estimated with the assumption that 1 mg is equivalent to 1 mm^3 of tumor volume. For all therapeutic studies, mice were sorted into groups containing the same average size tumors prior to initiation of therapy. Controls
One group in each cohort received 1% vehicle IP three times per week to end, and served as the control group for calculation of % tumor growth delay (TGD).
Tumors were measured using calipers twice per week, and each animal was euthanized when its tumor reached the pre-determined tumor volume endpoint described for each experiment (usually 2000 mm^3) or on the final day, whichever came first. […] The time to endpoint (TTE) for analysis was calculated for each mouse by the following equation: TTE=[ log10(endpoint volume)−b]/m where TTE is expressed in days, endpoint volume is expressed in mm^3, b is the intercept, and m is the slope of the line obtained by linear regression of a log-transformed tumor growth data set. […] The calculated TTE was usually less than the TP date, the day on which the animal was euthanized for determination of tumor size. […]
Treatment outcome was evaluated from TGD, defined as the increase in the median TTE in a treatment group compared to the control group: TGD=T−C, expressed in days, or as a percentage of the median TTE of the control group: % TGD=[(T−C)/C]×100 where: […]
Animals were weighed daily on Days 1-5, then twice per week until completion of the study. […] Group mean BW loss also was monitored as per protocol. […]

H460 cells = experiment: M830 in the H460 non-small cell lung carcinoma xenograft model; assay type: in vivo, athymic nude mice; settings: M830 with combination partner Paclitaxel
Method: Animals were monitored for regression responses.
Cultured H460 cells were harvested during exponential growth and resuspended in phosphate buffered saline at a concentration of 1×10^8 cells/mL. 1.0×10^7 tumor cells were injected subcutaneously into the flank of athymic nude mice.

| Molecule | survival compared to controls (MDA-MB231 tumors) | regression (at Day 21) (H460 cells) |
| --- | --- | --- |
| COc1cccc2c1C(=O)c1c(O)c3c(c(O)c1C2=O)C[C@@](O)(C(=O)CO)C[C@@H]3O[C@H]1C[C@H](N)[C@H](O)[C@H](C)O1 [Doxorubicin, doxorubicin] | statistically significant survival extensions |  |
| CC(=O)O[C@H]1C(=O)[C@@]2(C)[C@H]([C@H](OC(=O)c3ccccc3)[C@]3(O)C[C@H](OC(=O)[C@H](O)[C@@H](NC(=O)c4ccccc4)c4ccccc4)C(C)=C1C3(C)C)[C@]1(OC(C)=O)CO[C@@H]1C[C@@H]2O [paclitaxel] | statistically significant survival extensions |  |
| M830: TEM8 monoclonal antibody (hIgG1), VH SEQ ID NO:5, VL SEQ ID NO:6 (antibody, V domains shown, TEM830 mAb VH; TEM830 mAb VL) VH: EVQLVESGGGVVQPGRSVRLSCAASGFTFSTYTMHWVRQAPGKGLEWVAIISNDGSNKYYADPVRGRFTISRDNSKNTLYLQMNSLRAEDTAVYYCVRGSSWYRGNWFDPWGQGTLVTVSS VL: DIQMTQSPSSLSASVGDRVTIACRASQTISRYLNWYQQKPGKAPKLLIYAASSLQSGVSSRFSGSGSGTEFTLTISSLQPEDFATYFCQQTYSPPITFGQGTRLEIKR | did not produce statistically significant survival benefit | (−61% regression) |
